Test results from ChEMBL document CHEMBL4311960, “Two optimized antimicrobial peptides with therapeutic potential for clinical antibiotic-resistant Staphylococcus aureus” (Eur J Med Chem, 2019).
Activity calls are given as the source filed them. No cut-off for these calls is given here.

Legend:
Staphylococcus aureus [1] = assay: Inhibition of biofilm formation in methicillin-resistant Staphylococcus aureus ATCC 18466 assessed as downregulation of hld gene at MIC incubated for 1 hr by qRT-PCR; type: functional, organism-based
Staphylococcus aureus [2] = assay: Disruption of membrane integrity in Staphylococcus aureus ATCC 25923 assessed as shrinking of cell membrane at MIC incubated for 24 hrs by scanning electron microscopy; type: functional, organism-based
Staphylococcus aureus [3] = assay: Disruption of membrane integrity in methicillin-resistant Staphylococcus aureus ATCC 19498 assessed as shrinking of cell membrane at MIC incubated for 24 hrs by scanning electron microscopy; type: functional, organism-based
Staphylococcus aureus [4] = assay: Inhibition of biofilm formation in Staphylococcus aureus ATCC 29213 assessed as downregulation of mecA gene at MIC incubated for 1 hr by qRT-PCR; type: functional, organism-based
Candida albicans = assay: Antifungal activity against Candida albicans ATCC 5314 assessed as reduction in fungal growth incubated for 24 hrs by serial dilution method; type: functional; conditions: ATCC 5314, 24 h, read-out: MIC
Staphylococcus aureus [5] = assay: Inhibition of biofilm formation in Staphylococcus aureus ATCC 25923 assessed as downregulation of hld gene at MIC incubated for 1 hr by qRT-PCR; type: functional, organism-based
Streptococcus sanguinis = assay: Antibacterial activity against Streptococcus sanguinis ATCC 10556 assessed as reduction in bacterial growth incubated for 24 hrs by serial dilution method; type: functional; conditions: ATCC 10556, 24 h, read-out: MIC
Staphylococcus aureus [6] = assay: Inhibition of biofilm formation in methicillin-resistant Staphylococcus aureus ATCC 18466 at MIC incubated for 24 hrs by scanning electron microscopy; type: functional, organism-based
Erythrocyte = assay: Hemolytic activity in mouse Erythrocyte assessed as HC10 incubated for 1 hr; type: ADME, cell-based
Staphylococcus aureus [7] = assay: Disruption of membrane integrity in methicillin-resistant Staphylococcus aureus ATCC 19498 assessed as decrease in cell volume at MIC incubated for 24 hrs by scanning electron microscopy; type: functional, organism-based
Staphylococcus aureus [8] = assay: Inhibition of biofilm formation in methicillin-resistant Staphylococcus aureus ATCC 19498 assessed as downregulation of hld gene at MIC incubated for 1 hr by qRT-PCR; type: functional, organism-based
[9] = Stability in mouse plasma at 20 uM incubated for 24 hrs by HPLC-MS analysis; type: ADME, cell-free
Staphylococcus aureus [10] = assay: Inhibition of biofilm formation in Staphylococcus aureus ATCC 29213 assessed as downregulation of hld gene at MIC incubated for 1 hr by qRT-PCR; type: functional, organism-based
Staphylococcus aureus [11] = assay: Disruption of membrane integrity in Staphylococcus aureus ATCC 29213 assessed as invagination of cell membrane at MIC incubated for 24 hrs by scanning electron microscopy; type: functional, organism-based
Staphylococcus aureus [12] = assay: Inhibition of biofilm formation in methicillin-resistant Staphylococcus aureus ATCC 19498 assessed as downregulation of mecA gene at MIC incubated for 1 hr by qRT-PCR; type: functional, organism-based
Staphylococcus aureus [13] = assay: Inhibition of biofilm formation in methicillin-resistant Staphylococcus aureus ATCC 19498 assessed as downregulation of […] gene at MIC incubated for 1 hr by qRT-PCR; type: functional, organism-based
Staphylococcus aureus [14] = assay: Disruption of membrane integrity in methicillin-resistant Staphylococcus aureus ATCC 19498 assessed as perforation of cell membrane at MIC incubated for 24 hrs by scanning electron microscopy; type: functional, organism-based
Staphylococcus aureus [15] = assay: Disruption of membrane integrity in methicillin-resistant Staphylococcus aureus ATCC 18466 assessed as shrinking of cell membrane at MIC incubated for 24 hrs by scanning electron microscopy; type: functional, organism-based
[16] = Stability in mouse plasma at 20 uM incubated for 12 hrs by HPLC-MS analysis; type: ADME, cell-free
Staphylococcus aureus [17] = assay: Antibacterial activity against Staphylococcus aureus ATCC 29213 assessed as reduction in bacterial growth at MIC measured after 15 passages; type: functional
Streptococcus mutans = assay: Antibacterial activity against Streptococcus mutans UA159 assessed as reduction in bacterial growth incubated for 24 hrs by serial dilution method; type: functional; conditions: UA159, 24 h, read-out: MIC
Staphylococcus aureus [18] = assay: Inhibition of biofilm formation in Staphylococcus aureus ATCC 25923 assessed as downregulation of spa gene at MIC incubated for 1 hr by qRT-PCR; type: functional, organism-based
Staphylococcus aureus [19] = assay: Disruption of membrane integrity in methicillin-resistant Staphylococcus aureus ATCC 18466 assessed as cell membrane damage at MIC incubated for 24 hrs by scanning electron microscopy; type: functional, organism-based
Staphylococcus aureus [20] = assay: Disruption of membrane integrity in Staphylococcus aureus ATCC 29213 assessed as cell membrane damage at MIC incubated for 24 hrs by scanning electron microscopy; type: functional, organism-based
Staphylococcus aureus [21] = assay: Inhibition of biofilm formation in Staphylococcus aureus ATCC 29213 at MIC incubated for 24 hrs by scanning electron microscopy; type: functional, organism-based
Staphylococcus aureus [22] = assay: Inhibition of biofilm formation in Staphylococcus aureus ATCC 29213 assessed as downregulation of spa gene at MIC incubated for 1 hr by qRT-PCR; type: functional, organism-based
Staphylococcus aureus [23] = assay: Inhibition of biofilm formation in Staphylococcus aureus ATCC 25923 at MIC incubated for 24 hrs by scanning electron microscopy; type: functional, organism-based
Staphylococcus aureus [24] = assay: Disruption of membrane integrity in Staphylococcus aureus ATCC 25923 assessed as perforation of cell membrane at MIC incubated for 24 hrs by scanning electron microscopy; type: functional, organism-based
Staphylococcus aureus [25] = assay: Inhibition of biofilm formation in methicillin-resistant Staphylococcus aureus ATCC 19498 assessed as downregulation of spa gene at MIC incubated for 1 hr by qRT-PCR; type: functional, organism-based
Staphylococcus aureus [26] = assay: Inhibition of biofilm formation in Staphylococcus aureus ATCC 25923 assessed as downregulation of […] gene at MIC incubated for 1 hr by qRT-PCR; type: functional, organism-based
Staphylococcus aureus [27] = assay: Inhibition of biofilm formation in methicillin-resistant Staphylococcus aureus ATCC 19498 at MIC incubated for 24 hrs by scanning electron microscopy; type: functional, organism-based
Staphylococcus aureus [28] = assay: Disruption of membrane integrity in Staphylococcus aureus ATCC 29213 assessed as shrinking of cell membrane at MIC incubated for 24 hrs by scanning electron microscopy; type: functional, organism-based
[29] = Stability in MRSA supernatant at 20 uM incubated for 24 hrs by HPLC-MS analysis; type: physicochemical
Staphylococcus aureus [30] = assay: Disruption of membrane integrity in methicillin-resistant Staphylococcus aureus ATCC 19498 assessed as extravasation of cytoplasmic content at MIC incubated for 24 hrs by scanning electron microscopy; type: functional, organism-based
Staphylococcus aureus [31] = assay: Inhibition of biofilm formation in methicillin-resistant Staphylococcus aureus ATCC 18466 assessed as downregulation of mecA gene at MIC incubated for 1 hr by qRT-PCR; type: functional, organism-based
Staphylococcus aureus [32] = assay: Inhibition of biofilm formation in Staphylococcus aureus ATCC 29213 assessed as downregulation of […] gene at MIC incubated for 1 hr by qRT-PCR; type: functional, organism-based
Staphylococcus aureus [33] = assay: Disruption of membrane integrity in methicillin-resistant Staphylococcus aureus ATCC 18466 assessed as perforation of cell membrane at MIC incubated for 24 hrs by scanning electron microscopy; type: functional, organism-based
Staphylococcus aureus [34] = assay: Disruption of membrane integrity in methicillin-resistant Staphylococcus aureus ATCC 18466 assessed as extravasation of cytoplasmic content at MIC incubated for 24 hrs by scanning electron microscopy; type: functional, organism-based
[35] = Cytotoxicity against human HEK293T cells assessed as cell viability at 5 to 640 ug/ml incubated for 48 hrs by MTT assay relative to control; type: cell-based, HEK-293T; conditions: read-out: Activity

Row | Substance | inhibition (Staphylococcus aureus [1]) | Activity (Staphylococcus aureus [2]) | Activity (Staphylococcus aureus [3]) | inhibition (Staphylococcus aureus [4]) | MIC (Candida albicans) [µg/mL] | inhibition (Staphylococcus aureus [5]) | MIC (Streptococcus sanguinis) [µg/mL] | inhibition (Staphylococcus aureus [6]) | HC10 (Erythrocyte) [µg/mL] | Activity (Staphylococcus aureus [7]) | inhibition (Staphylococcus aureus [8]) | Stability [9] | inhibition (Staphylococcus aureus [10]) | Activity (Staphylococcus aureus [11]) | inhibition (Staphylococcus aureus [12]) | inhibition (Staphylococcus aureus [13]) | Activity (Staphylococcus aureus [14]) | Activity (Staphylococcus aureus [15]) | Stability [16] | Activity (Staphylococcus aureus [17]) | other results
1 | H-SYERKINRHFKTLKKNLKKK-NH2 | Active | Active | Active | inactive | 64 | Active | < 64 | Active | > 640 | Active | Active | Unstable | Active | Active | inactive | Active | Active | Active | Stable | Active | MIC (Streptococcus mutans): < 64 µg/mL; inhibition (Staphylococcus aureus [18]): Active; Activity (Staphylococcus aureus [19]): Active; Activity (Staphylococcus aureus [20]): Active; inhibition (Staphylococcus aureus [21]): Active; inhibition (Staphylococcus aureus [22]): Active; inhibition (Staphylococcus aureus [23]): Active; Activity (Staphylococcus aureus [24]): Active; inhibition (Staphylococcus aureus [25]): Active; inhibition (Staphylococcus aureus [26]): Active; inhibition (Staphylococcus aureus [27]): Active; Activity (Staphylococcus aureus [28]): Active; Stability [29]: Stable; Activity (Staphylococcus aureus [30]): Active; inhibition (Staphylococcus aureus [31]): inactive; inhibition (Staphylococcus aureus [32]): Active; Activity (Staphylococcus aureus [33]): Active; Activity (Staphylococcus aureus [34]): Active; viability at 48 h [35]: 70 to 80%
2 | H-YIRKIRRFFKKLKKILKK-NH2 | Active | Active | Active | inactive | 32 | Active | < 64 | Active | 640 | Active | Active | Unstable | Active | Active | inactive | Active | Active | Active | Stable | Active | MIC (Streptococcus mutans): 64 µg/mL; inhibition (Staphylococcus aureus [18]): Active; Activity (Staphylococcus aureus [19]): Active; Activity (Staphylococcus aureus [20]): Active; inhibition (Staphylococcus aureus [21]): Active; inhibition (Staphylococcus aureus [22]): Active; inhibition (Staphylococcus aureus [23]): Active; Activity (Staphylococcus aureus [24]): Active; inhibition (Staphylococcus aureus [25]): Active; inhibition (Staphylococcus aureus [26]): Active; inhibition (Staphylococcus aureus [27]): Active; Activity (Staphylococcus aureus [28]): Active; Stability [29]: Stable; Activity (Staphylococcus aureus [30]): Active; inhibition (Staphylococcus aureus [31]): inactive; inhibition (Staphylococcus aureus [32]): Active; Activity (Staphylococcus aureus [33]): Active; Activity (Staphylococcus aureus [34]): Active; viability at 48 h [35]: 70 to 80%
